Laboratory results taken from US20230159931A1, “TARGETING THE PALMOTYLATION/DEPALMOTYLATION CYCLE TO TREAT INFLAMMATORY DISEASES” (CORNELL UNIVERSITY, priority 2020, published 2023).

Legend:
NLRP3 inflammasome = assay: NLRP3-mediated inflammasome activation in peritoneal macrophage (secreted IL-1 beta); type: cell-based; conditions: peritoneal macrophage primed with LPS 200 ng/mL 4h; 2-BP 25 μM with ATP 5 mM or Nigericin 10 μM, 1 h
Method: (§1) FIG. 13. 2-BP affects NLRP3-mediated inflammasome activation. Peritoneal macrophage was first primed with LPS (200 ng/mL) in DMEM medium (without serum) for 4h, and then 2-BP (25 μM) and ATP (5 mM) or Nigericin (10 μM) were added to the cell culture and incubated for 1 h. ATP and nigericin are two reagents that are commonly used to activate the NLRP3 inflammasome. The activation of NLRP3 inflammasome was then monitored by measuring the level of IL-1 beta secreted to the medium.
as §1, with “Peritoneal” for “FIG. 13. 2-BP affects NLRP3-mediated inflammasome activation. Peritoneal”, “medium (FIG. 13). The data support that inhibiting DHHCs with 2-BP can decrease NLRP3 inflammasome activation.” for “medium.”

[1] = tested on: Bone marrow-derived macrophages (BMDM); assay: Cytokine mRNA expression during LPS priming of BMDM (qRT-PCR); type: cell-based; conditions: 100 ng/mL LPS, 2-BP 10 μM or 25 μM, 6 hours
Method: (§2) FIGS. 12A-12D. 2-BP, a pan-DHHC inhibitor, decreases cytokines mRNA expression during the LPS priming step of inflammasome activation. Bone marrow-derived macrophages (BMDM) were treated with 100 ng/mL lipopolysaccharide (LPS), which can prime BMDM for inflammasome activation. A small molecule that inhibits all the DHHC family of palmitoyltransferases (DHHCs), 2-bromopalmitate (2-BP), was added at 10 μM or 25 μM together with LPS. The cells were cultured with LPS and 2-BP for 6 hours and then the mRNA levels of several pro-inflammatory cytokines: (A) IL-1 beta, (B) IL-6, (C) IL-12 beta, and (D) IL-18, were measured by quantitative reverse transcription PCR (qRT-PCR).
as §2, with “Bone” for “FIGS. 12A-12D. 2-BP, a pan-DHHC inhibitor, decreases cytokines mRNA expression during the LPS priming step of inflammasome activation. Bone”, “cytokines:” for “cytokines: (A)”, “beta (FIG. 12A), IL-6 (FIG. 12B),” for “beta, (B) IL-6, (C)”, “beta (FIG. 12C),” for “beta,”, “IL-18 (FIG. 12D),” for “(D) IL-18,”

SMAD2 S-palmitoylation = SMAD2 S-palmitoylation in HEK293T cells treated with APT inhibitors (Alk14, in-gel fluorescence); type: cell-based, human; conditions: 10 μM APT inhibitors for 24 hours; HEK293T cells with HA-DHHC7 and Flag-SMAD2
From the text: FIGS. 7A-7G. APT2 is the depalmitylase of SMAD2 and C-terminal phosphorylation of SMAD2 is S-palmitoylation independent. (A) C-terminal phosphorylation (Ser465/Ser467) levels of Flag-SMAD2 (p-SMAD2(C2)) in HEK293T cells expressing HA-tagged mouse DHHC1-23. SMAD2 was pulled down with Flag beads and subjected to western blot analyses. (B) HEK293T cells were transfected with HA-tagged DHHC7 and Flag-SMAD2 WT and C41/81S mutant plasmid and treated with Alk14. The S-palmitoylation level of immunoprecipitated SMAD2 was visualized by in-gel fluorescence and the p-SMAD2(C2) level was detected by western blot analyses. […] The S-palmitoylation level of immunoprecipitated SMAD2 was visualized by in-gel fluorescence. […] The cells were labeled with Alk14 and the S-palmitoylation of SMAD2 was determined by in-gel fluorescence. […] The cells were labeled with Alk14 and the S-palmitoylation of SMAD2 was determined by in-gel fluorescence and the p-SMAD2(C2) level was detected by western blot analyses. […]
Cells were treated with 50 μM palmitic acid analogue Alkyne 14 (Alk14) for 5 h and the collected and lysed in 1% NP-40 lysis buffer (25 mM Tris-HCl pH 8.0, 150 mM NaCl, 10% glycerol, 1% Nonidet P-40) with protease inhibitor cocktail. […] The protein concentration was determined by Bradford assay (23200, Thermo Fisher). […]

SMILES: CCCCCCCCCCCCCCC(Br)C(=O)O (stereo not drawn) [2-BP, 2-bromopalmitic acid]
- NLRP3 inflammasome activation (level of IL-1 beta secreted to the medium) (NLRP3 inflammasome): decrease
- IL-1 beta mRNA level [1]: decrease the mRNA levels of all these cytokines in a concentration dependent manner
- IL-6 mRNA level [1]: decrease the mRNA levels of all these cytokines in a concentration dependent manner
- IL-12 beta mRNA level [1]: decrease the mRNA levels of all these cytokines in a concentration dependent manner
- IL-18 mRNA level [1]: decrease the mRNA levels of all these cytokines in a concentration dependent manner

SMILES: CCCCCCCCCC[C@@H]1C(=O)O[C@H]1CCc1ccc(OC)c(OC)c1 [palmostatin B]
- SMAD2 S-palmitoylation signal (SMAD2 S-palmitoylation): significantly enhanced
